Data as given in patent US20260209211A1, “CYCLIN K DEGRADER AND USE THEREOF” (ADLAI NORTYE BIOPHARMA CO., LTD., priority 2022, published 2026).
pIC50: −log10 of the molar value. Read-outs that look alike come from different tables or passages of the source.

How the values were obtained:
Assay type in all cases: cell-based
Cyclin K (CCNK) = target: T1, Cyclin K (CCNK) (Homo sapiens, UniProt O75909+Q9NYV4); assay: Western blot analysis of Cyclin K (CCNK) degradation in HEK293 cells; details: 6 h, different concentrations, compared with the control (FIG. 1)
T1 construct: host or cells: HEK293
Procedure: HEK293 cells (ATCC, cat #CRL-1573) were harvested and the cell density was adjusted to 1×10^6 cells per ml. 1 ml of cell suspension was plated into each well of a 6-well plate and cultured overnight. The compound stock solution was taken and diluted with DMSO to the appropriate concentration. The diluted compounds were added to the cell wells at a ratio of 1:1000 using culture medium to ensure that the DMSO concentration in each well was 0.1%. Negative control wells were also set up, which contained complete medium containing 0.1% DMSO. After treatment with the compounds at the concentrations indicated in the figures and at different times, total cell protein was extracted using RIPA cell lysis buffer (Beyotime, cat #P0013B) containing PMSF. After protein quantification using the BCA protein quantification kit (Thermo Fisher, cat #A53225), each sample was loaded with 40 μg for subsequent SDS-PAGE and western blot experiments. The specific conditions are as follows: after running the gel at a constant voltage of 120 V for 90 minutes, transfer the membrane at a constant current of 320 mA for 60 minutes. Incubate the antibodies according to the recommended dilution ratio and incubation time. The antibody information used in the experiment is as follows: Anti-GAPDH antibody (abcam, cat #ab9485), Anti-Cyclin K antibody (abcam, cat #ab85854), Goat anti-Rabbit IgG (H+L) Cross-Adsorbed Secondary Antibody, HRP (invitrogen, cat #G-21234). ECL luminescent solution (Thermo Fisher, cat #32209) was used for color development. The final results were analyzed using a gel imaging system.
According to the above detection method, some compounds described in the present disclosure were evaluated.

[1] = test system: NCI-N87 (Human Gastric Cancer Cell); assay: Bioactivity detection of NCI-N87 cell growth inhibition (CellTiter-Glo); details: NCI-N87 cells, 72 hours, highest concentration 10 μM, read-out: N87 CTG IC50
Procedure: This detection method is used to evaluate the biological activity of the compounds described in this disclosure at the cellular level.
(§1) NCI-N87 cells (purchased from the Chinese Academy of Sciences) were harvested, resuspended in complete medium and adjusted to a cell density of 0.1×10^6 cells per ml. The cell suspension was added to a 96-well plate at a volume of 100 μL per well and cultured overnight in a 37° C., 5% CO2 incubator. Prepare the test compound and add it to the cell plate so that the highest concentration of the compound is 10 μM. Set 8 concentration points according to 3-fold dilution. At the same time, 100% inhibition control wells were set, that is, wells with no cells but only an equal volume of complete culture medium; and 0% inhibition control wells, that is, wells with cells added with 0.1% DMSO. The cell plate was cultured at 37° C. and 5% CO2 for 72 hours. Remove the cell culture plate and add 25 μl CellTiter-Glo Luminescent Cell Viability Reagent (promega cat #G7573) to each well. Incubate in the dark for 10 minutes and then transfer 100 μL to a white plate and use Molecular Devices SpectraMax i3 to detect chemiluminescence. The inhibition rate was calculated using the following formula for data processing: compound inhibition rate=(0% inhibition control well signal−compound treatment well signal)/(0% inhibition control well signal−100% inhibition control well signal)*10000. The calculated data were fitted with four parameters using GraphPad Prism software and the corresponding IC50 was calculated.

[2] = test system: HGC27 (Human Gastric Cancer Cell); assay: Bioactivity assay for HGC27 cell growth inhibition (CellTiter-Glo); details: read-out: HGC27 CTG IC50
Procedure: This detection method is used to evaluate the biological activity of the compounds of the present disclosure at the cellular level.
as §1, with “HGC27” for “NCI-N87”, “0.2×10^6” for “0.1×10^6”, “24” for “72”, “CellTiter-Glo®” for “CellTiter-Glo”, “signal)*100%.” for “signal)*10000.”

[3] = HGC-27, HGC27 cells, 24 hours, CellTiter-Glo, highest concentration 10 μM

T1 sequence (O75909 whole entry): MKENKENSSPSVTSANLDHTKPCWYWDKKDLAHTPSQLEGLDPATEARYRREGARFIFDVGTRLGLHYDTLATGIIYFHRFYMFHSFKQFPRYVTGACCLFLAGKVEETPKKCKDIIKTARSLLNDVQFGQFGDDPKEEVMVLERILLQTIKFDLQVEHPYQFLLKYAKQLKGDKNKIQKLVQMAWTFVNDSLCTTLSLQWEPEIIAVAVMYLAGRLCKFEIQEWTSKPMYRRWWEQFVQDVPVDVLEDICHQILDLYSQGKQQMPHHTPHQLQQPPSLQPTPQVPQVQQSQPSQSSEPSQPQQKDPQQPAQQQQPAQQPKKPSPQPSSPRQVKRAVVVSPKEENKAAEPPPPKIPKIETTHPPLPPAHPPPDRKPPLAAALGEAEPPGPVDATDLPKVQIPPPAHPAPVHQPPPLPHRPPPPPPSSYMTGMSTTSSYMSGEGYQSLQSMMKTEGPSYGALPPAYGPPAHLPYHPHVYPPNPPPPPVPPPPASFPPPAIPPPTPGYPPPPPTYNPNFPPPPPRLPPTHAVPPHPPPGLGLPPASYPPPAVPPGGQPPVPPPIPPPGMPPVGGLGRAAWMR
T1 sequence (Q9NYV4 whole entry): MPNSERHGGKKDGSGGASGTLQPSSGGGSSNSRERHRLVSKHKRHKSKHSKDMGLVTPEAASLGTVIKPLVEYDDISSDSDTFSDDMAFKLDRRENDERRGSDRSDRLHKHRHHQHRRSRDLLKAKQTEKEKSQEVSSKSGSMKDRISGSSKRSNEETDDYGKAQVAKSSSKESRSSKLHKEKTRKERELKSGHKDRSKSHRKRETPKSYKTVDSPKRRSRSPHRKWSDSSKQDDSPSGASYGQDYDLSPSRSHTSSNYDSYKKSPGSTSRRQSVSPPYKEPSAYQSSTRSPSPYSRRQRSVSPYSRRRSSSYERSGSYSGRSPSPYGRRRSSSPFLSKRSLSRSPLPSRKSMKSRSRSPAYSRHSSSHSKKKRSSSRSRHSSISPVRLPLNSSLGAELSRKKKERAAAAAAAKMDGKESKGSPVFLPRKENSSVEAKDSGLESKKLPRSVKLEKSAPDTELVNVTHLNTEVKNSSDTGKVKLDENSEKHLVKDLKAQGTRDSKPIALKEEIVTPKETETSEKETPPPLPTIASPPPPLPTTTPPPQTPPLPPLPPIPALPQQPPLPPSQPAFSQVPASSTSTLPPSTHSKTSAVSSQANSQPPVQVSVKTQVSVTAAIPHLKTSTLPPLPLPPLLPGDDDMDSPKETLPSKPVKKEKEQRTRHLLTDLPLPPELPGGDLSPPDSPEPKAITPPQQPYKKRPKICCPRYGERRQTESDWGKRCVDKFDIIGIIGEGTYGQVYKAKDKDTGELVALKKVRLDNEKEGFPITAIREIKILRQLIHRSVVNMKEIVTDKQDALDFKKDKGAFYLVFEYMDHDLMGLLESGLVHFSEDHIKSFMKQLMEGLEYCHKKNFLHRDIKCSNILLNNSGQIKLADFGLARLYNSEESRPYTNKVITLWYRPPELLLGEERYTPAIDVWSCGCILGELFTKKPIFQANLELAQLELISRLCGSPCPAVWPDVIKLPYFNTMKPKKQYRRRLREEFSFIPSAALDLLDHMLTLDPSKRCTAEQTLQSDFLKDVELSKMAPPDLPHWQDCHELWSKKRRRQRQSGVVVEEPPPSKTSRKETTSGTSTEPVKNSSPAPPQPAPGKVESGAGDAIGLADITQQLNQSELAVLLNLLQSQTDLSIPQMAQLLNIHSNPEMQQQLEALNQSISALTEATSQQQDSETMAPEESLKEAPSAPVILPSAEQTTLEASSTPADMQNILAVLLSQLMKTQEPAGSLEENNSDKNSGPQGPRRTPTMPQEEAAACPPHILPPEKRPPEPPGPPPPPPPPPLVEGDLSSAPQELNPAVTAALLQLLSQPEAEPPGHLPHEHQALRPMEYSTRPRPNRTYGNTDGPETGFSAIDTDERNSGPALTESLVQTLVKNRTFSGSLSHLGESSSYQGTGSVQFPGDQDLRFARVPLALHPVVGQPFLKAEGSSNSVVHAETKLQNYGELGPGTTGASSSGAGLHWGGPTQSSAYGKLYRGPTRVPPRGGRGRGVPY

C[C@@H](O)[C@@H](C)Oc1nc(NCc2ccc3c(c2)[nH]c2c(CO)ccnc23)ncc1C(F)(F)F [Compound 12]
degradation of Cyclin K (western blot) (Cyclin K (CCNK)): significantly induce the degradation of Cyclin K
pIC50 [1]: 8.12
pIC50 [2, 3]: 7.60

CC[C@@H](Nc1nc(NCc2ccc3c(c2)[nH]c2c(CO)ccnc23)ncc1C(F)(F)F)C(N)=O [Compound 17]
degradation of Cyclin K (western blot) (Cyclin K (CCNK)): significantly induce the degradation of Cyclin K
pIC50 [1]: 8.51
pIC50 [2, 3]: 7.17

C[C@@H](O)[C@@H](C)Nc1nc(NCc2ccc3c(c2)[nH]c2c(CO)ccnc23)ncc1C(F)(F)F [Compound 18]
degradation of Cyclin K (western blot) (Cyclin K (CCNK)): significantly induce the degradation of Cyclin K
pIC50 [1]: > 9.00
pIC50 [2, 3]: 8.10

CO[C@@H](C)[C@@H](Nc1nc(NCc2ccc3c(c2)[nH]c2c(CO)ccnc23)ncc1C#N)C(N)=O [Compound 74]
pIC50 [1]: 7.12
pIC50 [2, 3]: 6.89

OCc1ccnc2c1[nH]c1cc(CNc3ncc(C(F)(F)F)c(N[C@@H]4CNCC[C@@H]4O)n3)ccc12 [Compound 75]
pIC50 [1]: 7.66
pIC50 [2, 3]: 7.42

OCc1ccnc2c1[nH]c1cc(CNc3ncc(C(F)(F)F)c(N[C@@H]4CCNC[C@@H]4O)n3)ccc12 [Compound 77]
pIC50 [1]: 7.21
pIC50 [2, 3]: 6.82

OCc1ccnc2c1[nH]c1cc(CNc3ncc(C(F)(F)F)c(N[C@@H]4CNC[C@@H]4O)n3)ccc12 [Compound 78]
pIC50 [1]: 6.92
pIC50 [2, 3]: 6.61

CO[C@@H](C)[C@@H](Nc1nc(NCc2ccc3c(c2)nn2c(CO)ccnc32)ncc1C(F)(F)F)C(N)=O [Compound 79]
pIC50 [1]: 8.05
pIC50 [2, 3]: 7.42

OCc1ccnc2c3ccc(CNc4ncc(C(F)(F)F)c(N[C@@H]5CNCC[C@@H]5O)n4)cc3nn12 [Compound 80]
pIC50 [1]: 8.27
pIC50 [2, 3]: 7.39

N#Cc1ccnc2c1[nH]c1cc(CNc3ncc(C(F)(F)F)c(N[C@@H]4CNCC[C@@H]4O)n3)ccc12 [Compound 81]
pIC50 [1]: 9.10
pIC50 ([2]; HGC-27, 24 h): 8.70

CO[C@@H](C)[C@@H](Nc1nc(NCc2ccc3c(c2)[nH]c2c(CO)ccnc23)ncc1C(F)(F)F)C(N)=O [Compound 82]
pIC50 [1]: 8.22
pIC50 [2, 3]: 7.55

Cc1ccnc2c1[nH]c1cc(CNc3ncc(C(F)(F)F)c(N[C@@H]4CNCC[C@@H]4O)n3)ccc12 [Compound 83]
pIC50 [1]: 8.10
pIC50 [2, 3]: 8.10

CC[C@@H](Oc1nc(NCc2ccc3c(c2)[nH]c2c(CN)ccnc23)ncc1C(F)(F)F)C(N)=O [Compound 84]
pIC50 [1]: 7.07
pIC50 [2, 3]: 6.39

N#Cc1ccnc2c1[nH]c1cc(CNc3ncc(C(F)(F)F)c(N[C@@H]4CNCC[C@H]4O)n3)ccc12 [Compound 85]
pIC50 [1]: 8.07
pIC50 ([2]; HGC-27, 24 h): 7.77

N#Cc1ccnc2c1[nH]c1cc(CNc3ncc(C(F)(F)F)c(N[C@@H]4CNC[C@@H]4O)n3)ccc12 [Compound 86]
pIC50 [1]: 8.40
pIC50 [2, 3]: 8.22

N#Cc1ccnc2c1[nH]c1cc(CNc3ncc(C(F)(F)F)c(N[C@@H]4CN(C(=O)CN)CC[C@@H]4O)n3)ccc12 [Compound 87]
pIC50 [1]: 7.92
pIC50 [2, 3]: 7.92

CN1CC[C@H](O)[C@H](Nc2nc(NCc3ccc4c(c3)[nH]c3c(C#N)ccnc34)ncc2C(F)(F)F)C1 [Compound 88]
pIC50 [1]: 8.70
pIC50 [2, 3]: 8.70

N#Cc1ccnc2c1[nH]c1cc(CNc3ncc(C(F)(F)F)c(N[C@@H]4CCNC[C@@H]4O)n3)ccc12 [Compound 89]
pIC50 [1]: 8.54
pIC50 [2, 3]: 8.70

C[C@@H](N)[C@@H](C)Oc1nc(NCc2ccc3c(c2)[nH]c2c(CO)ccnc23)ncc1C(F)(F)F [Compound 90]
pIC50 [1]: 8.22
pIC50 [2, 3]: 8.31

N#Cc1ccnc2c1[nH]c1cc(CNc3ncc(C(F)(F)F)c(O[C@@H]4CNC[C@@H]4O)n3)ccc12 [Compound 91]
pIC50 [1]: 8.28
pIC50 [2, 3]: 7.85

Cn1c2cc(CNc3ncc(C(F)(F)F)c(N[C@@H]4CNCC[C@@H]4O)n3)ccc2c2nccc(C#N)c21 [Compound 93]
pIC50 [1]: 8.39
pIC50 [2, 3]: 7.77

N#Cc1ccnc2c1[nH]c1cc(CNc3ncc(C(F)(F)F)c(N[C@@H]4CN(CCO)CC[C@@H]4O)n3)ccc12 [Compound 94]
pIC50 [1]: 8.43
pIC50 [2, 3]: 8.05

C[C@@H](O)[C@H](Nc1nc(NCc2ccc3c(c2)[nH]c2c(C#N)ccnc23)ncc1C(F)(F)F)C(N)=O [Compound 95]
pIC50 [1]: 8.10
pIC50 ([2]; HGC-27, 24 h): 8.52

COc1ccnc2c1[nH]c1cc(CNc3ncc(C(F)(F)F)c(N[C@@H](C(N)=O)[C@H](C)OC)n3)ccc12 [Compound 97]
pIC50 [1]: 8.18
pIC50 [2, 3]: 7.37

C[C@@H](O)[C@@H](C)Nc1nc(NCc2ccc3c(c2)[nH]c2c(C#N)ccnc23)ncc1C(F)(F)F [Compound 98]
pIC50 [1]: 8.70
pIC50 [2, 3]: 8.15
